# Assays:
# [1] = compound: C1CN(CCC1(C(=O)N[C@@H](CCO)C2=CC=C(C=C2)Cl)N)C3=NC=NC4=C3C=CN4 [Capivasertib]; conditions: max 10 µM
# How it was run: (§1)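 Cancer cell lines were dosed for 72 hours (final DMSO typically 0.2%) after 24 hours at 37°C and 5% CO2 in 1536-well plates containing 7.5 μl DMEM/F12 or RPMI with 10% FBS. Viability came from CellTiter-Glo 2.0 luminescence, scaled between blank-well and DMSO-well means, and dose responses were fitted to a two-parameter logistic curve with a non-linear mixed effects model. The single-agent IC50 was obtained from this fit.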
# [2] = compound: C=CCn1c(=O)c2cnc(Nc3ccc(N4CCN(C)CC4)cc3)nc2n1-c1cccc(C(C)(C)O)n1 [AZD1775]; conditions: max 3 µM
# How it was run: as §1
# [3] = compound: CC(=O)Nc1cccc(-n2c(=O)n(C3CC3)c(=O)c3c(Nc4ccc(I)cc4F)n(C)c(=O)c(C)c32)c1 [Trametinib]; conditions: max 1 µM
# How it was run: as §1
# [4] = compound: CC(=O)c1c(C)c2cnc(Nc3ccc(N4CCNCC4)cn3)nc2n(C2CCCC2)c1=O [Palbociclib]; conditions: max 10 µM
# How it was run: as §1
# [5] = compound: CC(C)n1c(=O)n(C)c2cnc3cc(F)c(-c4ccc(OCCCN5CCCCC5)nc4)cc3c21 [AZD1390]; conditions: max 0.3 µM
# How it was run: as §1
# [6] = compound: CC1(C)CCC(CN2CCN(c3ccc(C(=O)NS(=O)(=O)c4ccc(NCC5CCOCC5)c([N+](=O)[O-])c4)c(Oc4cnc5[nH]ccc5c4)c3)CC2)=C(c2ccc(Cl)cc2)C1 [Venetoclax]; conditions: max 1 µM
# How it was run: as §1
# [7] = compound: CC1=C(C(=CC=C1)Cl)NC(=O)C2=CN=C(S2)NC3=CC(=NC(=N3)C)N4CCN(CC4)CCO [Dasatinib]; conditions: max 2 µM
# How it was run: as §1
# [8] = compound: CC1=CN2[C@@H](C1)C=NC3=CC(=C(C=C3C2=O)OC)OCCCCCOC4=C(C=C5C(=C4)N=C[C@@H]6CC(=CN6C5=O)C)OC [SG3199]; conditions: max 0.001 µM
# How it was run: as §1
# [9] = compound: CCN(CCO)CCCOc1ccc2c(Nc3cc(CC(=O)Nc4cccc(F)c4)[nH]n3)ncnc2c1 [AZD2811]; conditions: max 1 µM
# How it was run: as §1
# [10] = compound: CCc1c2c(nc3ccc(O)cc13)-c1cc3c(c(=O)n1C2)COC(=O)[C@]3(O)CC [SN-38]; conditions: max 0.3 µM
# How it was run: as §1
# [11] = compound: CN(C)CCCOc1ccc(-c2ccc3ncc4c(c3c2)n(C2CCOCC2)c(=O)n4C)cn1 [AZD0156]; conditions: max 3 µM
# How it was run: as §1
# [12] = compound: CN(CC[C@H](CSC1=CC=CC=C1)NC2=C(C=C(C=C2)S(=O)(=O)NC(=O)C3=CC=C(C=C3)N4CCC(CC4)[C@H](C5=CC=CC=C5C6=CC=C(C=C6)Cl)O)S(=O)(=O)C(F)(F)F)CCO [AZD4320]; conditions: max 1 µM
# How it was run: as §1
# [13] = compound: COc1cc(Nc2ncc3c(n2)-c2ccc(Cl)cc2C(c2c(F)cccc2OC)=NC3)ccc1C(=O)O [Alisertib]; conditions: max 10 µM
# How it was run: as §1
# [14] = compound: COc1cc2ncnc(Nc3ccc(F)c(Cl)c3)c2cc1OCCCN1CCOCC1 [Gefitinib]; conditions: max 10 µM
# How it was run: as §1
# [15] = compound: COc1cccc(OCCCN)c1-c1cc(Nc2cnc(C#N)cn2)n[nH]1 [Prexasertib]; conditions: max 1 µM
# How it was run: as §1
# [16] = compound: COc1cccc2c1C(=O)c1c(O)c3c(c(O)c1C2=O)C[C@@](O)(C(=O)CO)C[C@@H]3O[C@H]1C[C@H](N)[C@H](O)[C@H](C)O1 [Doxorubicin]; conditions: max 1 µM
# How it was run: as §1
# [17] = compound: COc1nnc2ccc(N3CCC(c4ccc(OCCN5CCN(C)C(=O)[C@H]5C)cc4)CC3)nn12 [AZD5153]; conditions: max 1 µM
# How it was run: as §1
# [18] = compound: CS(=O)(=O)CCNCc1ccc(-c2ccc3ncnc(Nc4ccc(OCc5cccc(F)c5)c(Cl)c4)c3c2)o1 [Lapatinib]; conditions: max 10 µM
# How it was run: as §1
# [19] = compound: C[C@@H](Nc1cc(F)cc(F)c1)c1cc(C(=O)N(C)C)cc2c(=O)cc(N3CCOCC3)oc12 [AZD8186]; conditions: max 3 µM
# How it was run: as §1
# [20] = compound: C[C@@H](Oc1cc(-c2cnn(C3CCNCC3)c2)cnc1N)c1c(Cl)ccc(F)c1Cl [Crizotinib]; conditions: max 10 µM
# How it was run: as §1
# [21] = compound: C[C@@H](c1ccc2nccn2c1)n1nnc2ncc(-c3cnn(C)c3)nc21 [Savolitinib]; conditions: max 1 µM
# How it was run: as §1
# [22] = compound: C[C@@H]1COCCN1C2=NC(=NC(=C2)C3(CC3)[S@](=N)(=O)C)C4=C5C=CNC5=NC=C4 [AZD6738]; conditions: max 10 µM
# How it was run: as §1
# [23] = compound: Cc1c2c(nn1C)CSCc1cc(n(C)n1)CSc1cc(c3ccccc3c1)OCCCc1c(C(=O)O)n(C)c3c-2c(Cl)ccc13 [AZD5991]; conditions: max 1 µM
# How it was run: as §1
# [24] = compound: Cc1cc2ncnn2cc1Nc1ncc2c(n1)n(C1CCOCC1)c(=O)n2C [AZD7648]; conditions: max 10 µM
# How it was run: as §1
# [25] = compound: Cc1nc(-c2cn3c(n2)-c2ccc(-c4cnn(C(C)(C)C(N)=O)c4)cc2OCC3)n(C(C)C)n1 [Taselisib]; conditions: max 10 µM
# How it was run: as §1
# [26] = compound: Cn1cnc2c(F)c(Nc3ccc(Br)cc3Cl)c(C(=O)NOCCO)cc21 [Selumetinib]; conditions: max 10 µM
# How it was run: as §1
# [27] = compound: O=C(c1cc(Cc2n[nH]c(=O)c3ccccc23)ccc1F)N1CCN(C(=O)C2CC2)CC1 [Olaparib]
# How it was run: as §1
Cell Line,"IC50, cell viability 72 h [1]","IC50, cell viability 72 h [2]","IC50, cell viability 72 h [3]","IC50, cell viability 72 h [4]","IC50, cell viability 72 h [5]","IC50, cell viability 72 h [6]","IC50, cell viability 72 h [7]","IC50, cell viability 72 h [8]","IC50, cell viability 72 h [9]","IC50, cell viability 72 h [10]","IC50, cell viability 72 h [11]","IC50, cell viability 72 h [12]","IC50, cell viability 72 h [13]","IC50, cell viability 72 h [14]","IC50, cell viability 72 h [15]","IC50, cell viability 72 h [16]","IC50, cell viability 72 h [17]","IC50, cell viability 72 h [18]","IC50, cell viability 72 h [19]","IC50, cell viability 72 h [20]","IC50, cell viability 72 h [21]","IC50, cell viability 72 h [22]","IC50, cell viability 72 h [23]","IC50, cell viability 72 h [24]","IC50, cell viability 72 h [25]","IC50, cell viability 72 h [26]","IC50, cell viability 72 h ([27]; max 10 µM)","IC50, cell viability 72 h ([27]; max 3 µM)"
KYSE-520 (Esophageal Squamous Cell Carcinoma),> 10000 nM,> 3000 nM,181 nM,> 10000 nM,> 300 nM,> 1000 nM,233 nM,> 1 nM,> 1000 nM,> 300 nM,> 3000 nM,> 1000 nM,> 10000 nM,3920 nM,116 nM,> 1000 nM,278 nM,3080 nM,> 3000 nM,> 10000 nM,> 1000 nM,> 10000 nM,> 1000 nM,> 10000 nM,1250 nM,> 10000 nM,> 10000 nM,
TCCSUP (Bladder Carcinoma),> 10000 nM,2310 nM,> 1000 nM,> 10000 nM,> 300 nM,> 1000 nM,> 2000 nM,> 1 nM,> 1000 nM,201 nM,> 3000 nM,> 1000 nM,> 10000 nM,> 10000 nM,165 nM,> 1000 nM,> 1000 nM,> 10000 nM,> 3000 nM,> 10000 nM,> 1000 nM,8380 nM,> 1000 nM,> 10000 nM,> 10000 nM,> 10000 nM,> 10000 nM,
LNCaP-Clone-FGC (Prostate Carcinoma),134 nM,811 nM,> 1000 nM,> 10000 nM,> 300 nM,> 1000 nM,> 2000 nM,> 1 nM,> 1000 nM,30.8 nM,> 3000 nM,> 1000 nM,> 10000 nM,> 10000 nM,35.6 nM,170 nM,94.4 nM,> 10000 nM,129 nM,8700 nM,> 1000 nM,3580 nM,> 1000 nM,> 10000 nM,957 nM,> 10000 nM,> 10000 nM,
RC-K8 (B-Cell Non-Hodgkin's Lymphoma),> 10000 nM,> 3000 nM,> 1000 nM,> 10000 nM,> 300 nM,> 1000 nM,> 2000 nM,,> 1000 nM,13.4 nM,> 3000 nM,856 nM,3000 nM,> 10000 nM,14.5 nM,,100 nM,> 10000 nM,> 3000 nM,> 10000 nM,> 1000 nM,1630 nM,> 1000 nM,> 10000 nM,7690 nM,> 10000 nM,,> 3000 nM
HuP-T4 (Pancreatic Carcinoma),> 10000 nM,1000 nM,> 1000 nM,> 10000 nM,> 300 nM,> 1000 nM,> 2000 nM,> 1 nM,> 1000 nM,8.7 nM,> 3000 nM,> 1000 nM,> 10000 nM,> 10000 nM,175 nM,946 nM,> 1000 nM,> 10000 nM,> 3000 nM,> 10000 nM,> 1000 nM,> 10000 nM,> 1000 nM,> 10000 nM,> 10000 nM,> 10000 nM,> 10000 nM,
MDA-MB-361 (Breast Carcinoma),9810 nM,515 nM,> 1000 nM,> 10000 nM,> 300 nM,> 1000 nM,> 2000 nM,> 1 nM,> 1000 nM,275 nM,> 3000 nM,> 1000 nM,> 10000 nM,> 10000 nM,6.52 nM,> 1000 nM,> 1000 nM,> 10000 nM,> 3000 nM,> 10000 nM,> 1000 nM,2180 nM,579 nM,> 10000 nM,103 nM,> 10000 nM,> 10000 nM,
DEL (T-Cell Non-Hodgkin's Lymphoma),> 10000 nM,178 nM,> 1000 nM,3530 nM,> 300 nM,> 1000 nM,> 2000 nM,> 1 nM,151 nM,2.3 nM,2810 nM,> 1000 nM,20.3 nM,> 10000 nM,5.4 nM,91.3 nM,27.5 nM,8540 nM,> 3000 nM,120 nM,> 1000 nM,707 nM,28.7 nM,> 10000 nM,> 10000 nM,> 10000 nM,8260 nM,
